Data published in patent US20260262643A1, “HERBICIDAL BENZOXAZINES” (FMC CORPORATION, priority 2022, published 2026).

Legend:
[1] = system: blackgrass; assay: Test A preemergence; format: in vivo, Alopecurus myosuroides
In short: (§1)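 Weeds and crops in loam–sand blend were sprayed preemergence onto soil or postemergence at 2–10 cm (one- to two-leaf stage). Test chemicals were in a non-phytotoxic solvent with surfactant. After 10 days in the greenhouse, injury was rated visually against untreated controls on a 0 (no effect) to 100 (complete control) scale.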

[2] = system: ragweed; assay: Test A preemergence; format: in vivo, Ambrosia artemisiifolia
In short: as §1

[3] = system: ryegrass, Italian; assay: Test A preemergence; format: in vivo, Lolium multiflorum
In short: as §1

[4] = system: horseweed; assay: Test A postemergence; format: in vivo, Erigeron canadensis; conditions: postemergence, 10 days
In short: as §1

[5] = system: goosegrass; assay: Test A preemergence; format: in vivo, Eleusine indica
In short: as §1

[6] = system: foxtail, giant; assay: Test A preemergence; format: in vivo, Setaria faberi
In short: as §1

[7] = system: wheat; assay: Test A preemergence; format: in vivo, Triticum aestivum
In short: as §1

[8] = system: ryegrass, Italian; assay: Test A postemergence; format: in vivo, Lolium multiflorum; conditions: postemergence, 10 days
In short: as §1

[9] = system: pigweed, palmer; assay: Test A postemergence; format: in vivo, Amaranthus palmeri; conditions: postemergence, 10 days
In short: as §1

[10] = system: oat, wild; assay: Test A preemergence; format: in vivo, Avena fatua
In short: as §1

[11] = system: ragweed; assay: Test A postemergence; format: in vivo, Ambrosia artemisiifolia; conditions: postemergence, 10 days
In short: as §1

[12] = system: goosegrass; assay: Test A postemergence; format: in vivo, Eleusine indica; conditions: postemergence, 10 days
In short: as §1

[13] = system: pigweed, palmer; assay: Test A preemergence; format: in vivo, Amaranthus palmeri
In short: as §1

[14] = system: soybean; assay: Test A preemergence; format: in vivo, Glycine max
In short: as §1

[15] = system: wheat; assay: Test A postemergence; format: in vivo, Triticum aestivum; conditions: postemergence, 10 days
In short: as §1

[16] = system: foxtail, giant; assay: Test A postemergence; format: in vivo, Setaria faberi; conditions: postemergence, 10 days
In short: as §1

[17] = system: corn; assay: Test A postemergence; format: in vivo, Zea mays; conditions: postemergence, 10 days
In short: as §1

[18] = system: ducksalad; assay: Test B flooded paddy test; format: in vivo, Heteranthera limosa; conditions: 250 g ai/ha, Flood, 13 days, 0 to 100 scale (0 no effect, 100 complete control)
In short: (§2)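 Application into standing water (3 cm above soil) at the two-leaf stage; flood depth held constant. Evaluation: day 13, visual comparison with controls, 0 = no injury, 100 = complete control.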

[19] = system: barnyardgrass; assay: Test B flooded paddy test; format: in vivo, Echinochloa crus-galli; conditions: 250 g ai/ha, Flood, 13 days, 0 to 100 scale (0 no effect, 100 complete control)
In short: as §2

[20] = system: oat, wild; assay: Test A postemergence; format: in vivo, Avena fatua; conditions: postemergence, 10 days
In short: as §1

[21] = system: corn; assay: Test A preemergence; format: in vivo, Zea mays
In short: as §1

[22] = system: blackgrass; assay: Test A postemergence; format: in vivo, Alopecurus myosuroides; conditions: postemergence, 10 days
In short: as §1

[23] = system: kochia; assay: Test A postemergence; format: in vivo, Bassia scoparia; conditions: postemergence, 10 days
In short: as §1

[24] = system: sedge, umbrella; assay: Test B flooded paddy test; format: in vivo, Cyperus difformis; conditions: 250 g ai/ha, Flood, 13 days, 0 to 100 scale (0 no effect, 100 complete control)
In short: as §2

[25] = system: soybean; assay: Test A postemergence; format: in vivo, Glycine max; conditions: postemergence, 10 days
In short: as §1

[26] = system: rice; assay: Test B flooded paddy test; format: in vivo, Oryza sativa; conditions: 250 g ai/ha, Flood, 13 days, 0 to 100 scale (0 no effect, 100 complete control)
In short: as §2

[27] = system: kochia; assay: Test A preemergence; format: in vivo, Bassia scoparia
In short: as §1

[28] = 125 g ai/ha, visual injury after 10 days, 0 to 100 scale, 0 is no effect, 100 is complete control
[29] = 500 g ai/ha, 0 to 100 scale (0 no effect, 100 complete control), 10 days
[30] = 125 g ai/ha, 0 to 100 scale, 0 no effect, 100 complete control
[31] = 500 g ai/ha, visual injury, 0 to 100 scale (0 no effect, 100 complete control)

SMILES: COc1ccc(-n2cnc(C(C)(C)C)n2)cc1C(=O)N1C[C@H](C)Oc2c(Cl)cccc21 [Compound 83]
- Plant response rating, Blackgrass [1, 28]: 40
- Plant response rating, Blackgrass [1, 29]: 50
- Plant response rating, Ragweed [2, 28]: 50
- Plant response rating, Ragweed [2, 29]: 90
- Plant response rating, Ryegrass, Italian [3, 28]: 100
- Plant response rating, Ryegrass, Italian [3, 29]: 100
- Horseweed plant response rating [4, 30]: 40
- Plant response rating, Horseweed [4, 31]: 40
- Plant response rating, Goosegrass [5, 28]: 100
- Plant response rating, Goosegrass [5, 29]: 100
- Plant response rating, Foxtail, Giant [6, 28]: 100
- Plant response rating, Foxtail, Giant [6, 29]: 100
- Plant response rating, Wheat [7, 28]: 10
- Plant response rating, Wheat [7, 29]: 90
- Ryegrass, Italian plant response rating [8, 30]: 40
- Plant response rating, Ryegrass, Italian [8, 31]: 100
- Pigweed, Palmer plant response rating [9, 30]: 100
- Plant response rating, Pigweed, Palmer [9, 31]: 90
- Plant response rating, Oat, Wild [10, 28]: 90
- Plant response rating, Oat, Wild [10, 29]: 90
- Ragweed plant response rating [11, 30]: 70
- Plant response rating, Ragweed [11, 31]: 100
- Goosegrass plant response rating [12, 30]: 70
- Plant response rating, Goosegrass [12, 31]: 100
- Plant response rating, Pigweed, Palmer [13, 28]: 100
- Plant response rating, Pigweed, Palmer [13, 29]: 100
- Plant response rating, Soybean [14, 28]: 50
- Plant response rating, Soybean [14, 29]: 100
- Wheat plant response rating [15, 30]: 10
- Plant response rating, Wheat [15, 31]: 40
- Foxtail, Giant plant response rating [16, 30]: 20
- Plant response rating, Foxtail, Giant [16, 31]: 90
- Corn plant response rating [17, 30]: 30
- Plant response rating, Corn [17, 31]: 50
- Plant response rating, Ducksalad [18]: 30
- Plant response rating, Barnyardgrass [19]: 40
- Oat, Wild plant response rating [20, 30]: 20
- Plant response rating, Oat, Wild [20, 31]: 70
- Plant response rating, Corn [21, 28]: 0
- Plant response rating, Corn [21, 29]: 20
- Blackgrass plant response rating [22, 30]: 10
- Plant response rating, Blackgrass [22, 31]: 60
- Kochia plant response rating [23, 30]: 100
- Plant response rating, Kochia [23, 31]: 100
- Plant response rating, Sedge, Umbrella [24]: 100
- Soybean plant response rating [25, 30]: 100
- Plant response rating, Soybean [25, 31]: 100
- Plant response rating, Rice [26]: 0
- Plant response rating, Kochia [27, 28]: 90
- Plant response rating, Kochia [27, 29]: 100
